Numbers after ± are expanded uncertainties.
Assay: wn = mass fraction of the nth substance listed
Details: Liquid; for viscosity: Falling or rolling sphere viscometry; for mass density: Vibrating tube method

OCCNCCO [diethanolamine] + O
Details | mass density, w1 = 0.0993 [kg/m3] | mass density, w1 = 0.2 [kg/m3] | mass density, w1 = 0.3002 [kg/m3] | mass density, w1 = 0.3997 [kg/m3] | viscosity, w1 = 0.0993 [mPa·s] | viscosity, w1 = 0.2 [mPa·s] | viscosity, w1 = 0.3002 [mPa·s] | viscosity, w1 = 0.3997 [mPa·s]
373.15 K, 30000 kPa | 981.4 ± 0.7 | 991.5 ± 0.7 | 1001.6 ± 0.7 | 1012 ± 0.7 | 0.3689 ± 0.012 | 0.4761 ± 0.016 | 0.6417 ± 0.021 | 0.9 ± 0.03
373.15 K, 40000 kPa | 985.7 ± 0.7 | 995.6 ± 0.7 | 1005.7 ± 0.7 | 1016 ± 0.7 | 0.3724 ± 0.012 | 0.482 ± 0.016 | 0.6515 ± 0.021 | 0.9123 ± 0.03
373.15 K, 50000 kPa | 989.7 ± 0.7 | 999.5 ± 0.7 | 1009.5 ± 0.7 | 1019.8 ± 0.7 | – | – | – | –
373.15 K, 60000 kPa | 993.6 ± 0.7 | 1003.5 ± 0.7 | 1013.4 ± 0.7 | 1023.6 ± 0.7 | 0.3807 ± 0.013 | 0.492 ± 0.016 | 0.6676 ± 0.022 | 0.9445 ± 0.031
373.15 K, 70000 kPa | 997.5 ± 0.7 | 1007.3 ± 0.7 | 1017.2 ± 0.7 | 1027.3 ± 0.7 | – | – | – | –
373.15 K, 80000 kPa | 1001.4 ± 0.7 | 1011.1 ± 0.7 | 1020.9 ± 0.7 | 1031 ± 0.7 | 0.3871 ± 0.013 | 0.5046 ± 0.017 | 0.6851 ± 0.023 | 0.9763 ± 0.032
373.15 K, 90000 kPa | 1005.1 ± 0.7 | 1014.7 ± 0.7 | 1024.4 ± 0.7 | 1034.5 ± 0.7 | – | – | – | –
373.15 K, 100000 kPa | 1008.8 ± 0.7 | 1018.3 ± 0.7 | 1028 ± 0.7 | 1038 ± 0.7 | 0.3943 ± 0.013 | 0.5153 ± 0.017 | 0.7019 ± 0.023 | 1.003 ± 0.033
373.15 K, 110000 kPa | 1012.4 ± 0.7 | 1021.9 ± 0.7 | 1031.5 ± 0.7 | 1041.4 ± 0.7 | – | – | – | –
373.15 K, 120000 kPa | 1015.9 ± 0.7 | 1025.3 ± 0.7 | 1034.9 ± 0.7 | 1044.8 ± 0.8 | – | – | – | –
373.15 K, 130000 kPa | 1019.4 ± 0.7 | 1028.7 ± 0.7 | 1038.2 ± 0.7 | 1048.1 ± 0.8 | – | – | – | –
373.15 K, 140000 kPa | 1022.7 ± 0.7 | 1032 ± 0.7 | 1041.5 ± 0.8 | 1051.3 ± 0.8 | – | – | – | –
393.15 K, 100 kPa | 952.6 ± 0.7 | 962.8 ± 0.7 | 972.9 ± 0.7 | 983.2 ± 0.7 | – | – | – | –
393.15 K, 500 kPa | 952.9 ± 0.7 | 963.2 ± 0.7 | 973.2 ± 0.7 | 983.5 ± 0.7 | – | – | – | –
393.15 K, 1000 kPa | 953.1 ± 0.7 | 963.3 ± 0.7 | 973.4 ± 0.7 | 983.7 ± 0.7 | – | – | – | –
393.15 K, 2000 kPa | 953.6 ± 0.7 | 963.8 ± 0.7 | 973.9 ± 0.7 | 984.2 ± 0.7 | – | – | – | –
393.15 K, 5000 kPa | 955.1 ± 0.7 | 965.2 ± 0.7 | 975.3 ± 0.7 | 985.6 ± 0.7 | 0.2926 ± 0.0096 | 0.3644 ± 0.012 | 0.4675 ± 0.015 | 0.6194 ± 0.02
393.15 K, 10000 kPa | 957.5 ± 0.7 | 967.7 ± 0.7 | 977.7 ± 0.7 | 988 ± 0.7 | 0.2943 ± 0.0097 | 0.3676 ± 0.012 | 0.4721 ± 0.015 | 0.6265 ± 0.021
393.15 K, 15000 kPa | 959.9 ± 0.7 | 969.9 ± 0.7 | 980 ± 0.7 | 990.3 ± 0.7 | 0.2964 ± 0.0097 | 0.37 ± 0.012 | 0.4778 ± 0.016 | 0.6495 ± 0.021
393.15 K, 20000 kPa | 962.3 ± 0.7 | 972.3 ± 0.7 | 982.4 ± 0.7 | 992.7 ± 0.7 | 0.2989 ± 0.0098 | 0.3724 ± 0.012 | 0.4809 ± 0.016 | 0.6555 ± 0.022
393.15 K, 25000 kPa | – | – | – | – | 0.301 ± 0.0099 | 0.3748 ± 0.012 | 0.4848 ± 0.016 | 0.6626 ± 0.022
393.15 K, 30000 kPa | 966.8 ± 0.7 | 976.8 ± 0.7 | 986.9 ± 0.7 | 997.1 ± 0.7 | 0.3024 ± 0.0099 | 0.3769 ± 0.012 | 0.4908 ± 0.016 | 0.6682 ± 0.022
393.15 K, 40000 kPa | 971.3 ± 0.7 | 981.3 ± 0.7 | 991.2 ± 0.7 | 1001.4 ± 0.7 | 0.3047 ± 0.01 | 0.3818 ± 0.013 | 0.4967 ± 0.016 | 0.681 ± 0.022
393.15 K, 50000 kPa | 975.4 ± 0.7 | 985.4 ± 0.7 | 995.3 ± 0.7 | 1005.4 ± 0.7 | – | – | – | –
393.15 K, 60000 kPa | 979.7 ± 0.7 | 989.6 ± 0.7 | 999.4 ± 0.7 | 1009.6 ± 0.7 | 0.3113 ± 0.01 | 0.3919 ± 0.013 | 0.5122 ± 0.017 | 0.7072 ± 0.023
393.15 K, 70000 kPa | 984 ± 0.7 | 993.8 ± 0.7 | 1003.6 ± 0.7 | 1013.6 ± 0.7 | – | – | – | –
393.15 K, 80000 kPa | 987.9 ± 0.7 | 997.6 ± 0.7 | 1007.3 ± 0.7 | 1017.3 ± 0.7 | 0.3178 ± 0.01 | 0.4017 ± 0.013 | 0.527 ± 0.017 | 0.7305 ± 0.024
393.15 K, 90000 kPa | 991.7 ± 0.7 | 1001.5 ± 0.7 | 1011.2 ± 0.7 | 1021.2 ± 0.7 | – | – | – | –
393.15 K, 100000 kPa | 995.5 ± 0.7 | 1005.2 ± 0.7 | 1014.8 ± 0.7 | 1024.8 ± 0.7 | 0.3233 ± 0.011 | 0.4114 ± 0.013 | 0.5417 ± 0.018 | 0.7538 ± 0.025
393.15 K, 110000 kPa | 999.4 ± 0.7 | 1008.9 ± 0.7 | 1018.5 ± 0.7 | 1028.5 ± 0.7 | – | – | – | –
393.15 K, 120000 kPa | 1003.1 ± 0.7 | 1012.6 ± 0.7 | 1022.1 ± 0.7 | 1032 ± 0.7 | – | – | – | –
393.15 K, 130000 kPa | 1006.6 ± 0.7 | 1016.1 ± 0.7 | 1025.5 ± 0.7 | 1035.4 ± 0.7 | – | – | – | –
393.15 K, 140000 kPa | 1010.1 ± 0.7 | 1019.5 ± 0.7 | 1029.1 ± 0.7 | 1038.9 ± 0.8 | – | – | – | –

Reference: the NIST ThermoML archive (doi:10.1016/j.jct.2017.05.001)
